Data as given in patent US5281608A, “Substituted tetrahydropyrido[3',4':4,5]-pyrrolo[3,2-c]quinolines” (American Home Products Corporation, priority 1992, dated 1994).
Values after ≈ are worked out from the molar mass of the structure shown.

Assays:
[1] = system: rabbit articular chondrocytes (IL-1-induced neutral protease release); assay: Inhibition of IL-1-induced release of neutral protease from rabbit articular chondrocytes; format: cell-based, rabbit (Male New Zealand White); settings: Oryctolagus cuniculus, Chondrocyte, human IL-1 stimulated, 24 h
Method: The ability of the compounds of the invention to inhibit interleukin 1 is measured by the ability of the test compounds to inhibit the IL-1-induced release of neutral protease from rabbit articular chondrocytes.
Male New Zealand White rabbits are anesthetized with 50 mg/kg of ketamine (i.m.) and killed by an intracardiac injection of 3 mls. of Nembutal. The knee joints of both legs are resected and the articular surfaces are exposed. Cartilage slices are obtained using a scalpel and are placed in a tissue culture dish (100 mm diameter) containing 10 mls of Hank's balanced salt solution (HBSS). The chondrocytes within the cartilage slices are then liberated by a series of enzyme digestions. The slices are incubated for 10 minutes at 37° C. in 0.05% hyaluronidase (Sigma H-3884), rinsed with HBSS and incubated with 0.2% trypsin (Sigma T-2395) for 10 minutes at 37° C. The slices are rinsed again and incubated for 10 minutes at 37° C. with 1.2% collagenase (Sigma C-5138). The slices are then rinsed again with HBSS and resuspended in 10 ml of Ham's F-12 medium containing 10% fetal bovine calf serum (FCS) and 0.2 % collagenase and incubated overnight at 37° C. in a 5% CO2 incubator. The next day, the medium containing the digested cartilage fragments and liberated chondrocytes is transferred to a 15 ml centrifuge tube and the cells are collected by centrifugation and washed twice and resuspended in Ham's F-12 medium. The cells are then plated into 24-well tissue culture plates (2×10^5 cells/well) and incubated at 37° C. until confluent (usually 4-6 days).
The confluent chondrocytes are rinsed twice with serum-free Ham's F-12 medium and 1 ml is added to each well. Fifty μl of purified human IL 1 (100 Units/ml; Genzyme Corporation, Boston, Mass.) is then added to stimulate these cells to secrete neutral protease. To measure drug effects, the cells are treated with test compound 10 minutes prior to addition of IL-1. The standard screening dose is 10 μM. Twenty-four hours after IL-1 stimulation, supernatant fluids are collected and assayed for neutral protease activity.
The neutral protease activity of chondrocyte supernatant fluids is determined by their ability to degrade an insoluble protease substrate, azocoll (Sigma). Supernatants are treated for 10 minutes at room temperature with 350 μM p-aminophenylmurcuric acetate to activate the latent enzyme. Three hundred μl of supernatant is then mixed with 500μl of a 20 mg/ml suspension of azocoll and incubated at 37° C. for 18-24 hours with gentle rocking. The mixtures are centrifuged and the amount of substrate hydrolyzed is determined by measuring the absorbance of the supernatant at 520 nm.
Drug effects are calculated as the % change in enzyme activity (absorbance)by supernatants from drug-treated chondrocytes relative to enzyme activity of supernatants from vehicle-treated chondrocytes as follows: [formula]

[2] = system: rat limb bones (PTH-induced bone resorption); assay: Bone resorption assay (45Ca release from rat limb bones), PTH-induced; format: cell-based, rat (Sprague-Dawley CD); settings: 48 h; for IC50: Rattus norvegicus, read-out: Inhibition of Bone Resorption, PTH-Induced (IC50)
Method: (§1) The ability of the compounds of the invention to modify the process of bone resorption is evaluated in the bone resorption assay measuring ^45 Ca release from rat limb bones.
(§2) Limb bone preparation. Timed pregnant Sprague-Dawley CD® rats (Charles River) are administered 100 μCi ^45 CaCl2 (NEN calcium -45 NEZ-013) in 100 μl of 0.9% saline, subcutaneously, on day 18 of gestation. The rats are sacrificed the following day by CO2 asphyxiation. The fetuses are removed and the right forelimbs excised and placed in a Petri dish containing ice cold explant medium consisting of modified BGJb -Fitton Jackson media (custom formulation, Gibco No. 78-0088) adjusted to pH 7.3 to which 10 mM TES is added. The modified BGJb media is obtained without salts, glucose or bicarbonate and is supplemented before use with 0.1 mM MgCl2, 1.25 mM CaCl2, 5.3 mM KCl, 0.7 mM MgSO4, 130 mM NaCl, 1.0 mM NaH2 PO4, 1 g/L glucose, 50 mg/L Na acetate and 100 U/ml penicillin G. The medium is sterilized by passage through a 0.2 μ M filter (Nalge). Under a dissecting microscope, the bones are gently cleaned of adherent tissue and the cartilaginous ends removed. Incubation and drug treatment. The midshafts are placed, individually, on 3×3 mm squares of filter paper (Gelman GN-6 metricel filters; […] pore size) which rest on stainless steel screens in wells of 24-well culture plates containing 0.5 mL of preincubation medium. The preincubation medium is brought to 37° C. prior to transfer of bones. The preincubation medium consists of the modified BGJb medium (with salts and glucose as above), pH 7.3, containing 29 mM NaHCO3. After incubation for 18-24 hours at 37° C. in 5% CO2, the bones are transferred on their screen/filter paper supports to new plates containing, in a total volume of 0.5 mL/well at 37° C., the test compound diluted in preincubation medium supplemented with 15% heat inactivated horse serum (Gibco No. 230-6050), pH 7.3, with a bone resorption stimulating agent (e.g. parathyroid hormone [PTH] or interleukin-1 [IL-1]). For compounds that require nonaqueous solvents, dilutions are made from the appropriate stock solution with medium. In these instances, basal and bone resorption stimulated controls exposed to an equivalent concentration of the vehicle are included. An additional group of bones that have been subjected to boiling for 1 hour (kill control) are used to establish background, non cell mediated, exchange of ^45 Ca. The right ulna and radius from each fetus are used. Both bones are subjected to the same treatment and each treatment group consists of bones from 4 or more fetuses. Treatments are randomly assigned using a preclinical statistics program (PS-ALLOC). After a 48 hour incubation at 37° C. in 5% CO2, the bones are removed from the medium and extracted in 0.5 mL of 0.1N HCl for 1 or more days. Duplicate 150 μL aliquots of the incubation medium and the bone extract are analyzed for ^45 Ca radioactivity in 5 mL of liquid scintillation cocktail.
(§3) The percentage of bone ^45 Ca released into the medium is determined as follows: [formula] Results are normally expressed as the ratio of the percent ^45 Ca release of the experimental group versus the appropriate vehicle control, or as an IC50 value.

[3] = system: rat limb bones (IL-1 induced bone resorption); assay: Bone resorption assay (45Ca release from rat limb bones), IL-1 induced; format: cell-based, rat (Sprague-Dawley CD); settings: 48 h; for IC50: Rattus norvegicus, read-out: Inhibition of Bone Resorption, IL-1 Induced (IC50)
Method: as §1, §2, §3

IC50 [2] [µg/mL]	IC50 [3] [µg/mL]	SMILES	inhibition at 10 µM [1] [%]	Inhibition of Bone Resorption, PTH-Induced (activity in words) [2]	Inhibition of Bone Resorption, IL-1 Induced (activity in words) [3]	inhibition at 1 µM ([1]; dose 1 μM) [%]
		O=C(c1ccccc1)N1CCc2[nH]c3c(cnc4cc(Cl)ccc43)c2C1 [Example 6, 8-Benzoyl-3-Chloro-8,9,10,11-tetrahydro-7H-pyrido[3',4':4,5]pyrrolo[3,2-c]quinoline]	57	Active at 10 μg/ml	Active at 5 μg/ml	
0.144 (≈ 0.357 µM)	0.018 (≈ 0.0446 µM)	O=S(=O)(c1cccs1)N1CCc2[nH]c3c(cnc4cc(Cl)ccc43)c2C1 [Example 11, 3-Chloro-8,9,10,11-tetrahydro-8-(2-thienylsulfonyl)-7H-pyrido [3',4':4,5]pyrrolo[3,2-c]quinoline]		Active	Active	< 20
0.633 (≈ 1.54 µM)	6.84 (≈ 16.6 µM)	CS(=O)(=O)c1ccc(N2CCc3[nH]c4c(cnc5cc(Cl)ccc54)c3C2)cc1 [Example 1, 3-Chloro-8,9,10,11-tetrahydro-8-[4-(methylsulfonyl)phenyl]-7H-pyrido[3',4':4,5]pyrrolo[3,2-c]quinoline]	40	Active	Active	
0.274 (≈ 0.725 µM)	0.76 (≈ 2.01 µM)	O=C(Oc1ccccc1)N1CCc2[nH]c3c(cnc4cc(Cl)ccc43)c2C1 [Example 12, 3-Chloro-7,9,10,11-tetrahydro-8H-pyrido[3',4':4,5]pyrrolo-[3,2-c]quinoline-8-carboxylic Acid Phenyl Ester]	< 20	Active	Active	
